These are literature values, as cited in patent US9169224B2, “Piperazinyl and piperidinyl ureas as modulators of fatty acid amide hydrolase” (Janssen Pharmaceutica NV, priority 2004, dated 2015).

One data set has as its system CREAE mice. The note with it: Baker 2001; cited from earlier work.
The next data set concerns the target FAAH (Homo sapiens (Human), UniProt O00519). The settings on record: WO 04/033652; cited from earlier work.
For data set [1], the system named is rats. The note with it: WO 04/033652; cited from earlier work.
In data set [2] the test system is rats. The note with it: Kathuria 2003; cited from earlier work.
The test system of data set [3] is rats. The note with it: rat, Kathuria 2003; cited from earlier work.

Chain of FAAH (O00519 whole entry): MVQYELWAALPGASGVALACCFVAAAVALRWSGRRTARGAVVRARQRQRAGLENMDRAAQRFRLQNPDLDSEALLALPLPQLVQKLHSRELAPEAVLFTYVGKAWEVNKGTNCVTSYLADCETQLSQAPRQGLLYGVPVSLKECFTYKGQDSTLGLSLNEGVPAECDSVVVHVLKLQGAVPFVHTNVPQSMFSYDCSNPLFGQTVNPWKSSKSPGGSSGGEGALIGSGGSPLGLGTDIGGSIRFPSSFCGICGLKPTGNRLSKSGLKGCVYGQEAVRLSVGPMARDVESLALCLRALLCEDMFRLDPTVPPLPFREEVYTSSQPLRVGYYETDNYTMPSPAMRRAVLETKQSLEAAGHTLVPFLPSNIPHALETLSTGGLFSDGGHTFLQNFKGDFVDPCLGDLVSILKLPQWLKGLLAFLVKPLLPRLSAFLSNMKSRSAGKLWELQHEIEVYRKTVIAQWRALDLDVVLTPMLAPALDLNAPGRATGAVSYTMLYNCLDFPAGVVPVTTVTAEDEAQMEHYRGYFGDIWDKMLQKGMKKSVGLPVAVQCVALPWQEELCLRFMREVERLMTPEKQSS

Take `CCCCCCCCCCCCCCCCS(=O)(=O)F` [AM374]: in the data set on CREAE mice, the spasticity entry is recorded as “significantly reduce spasticity”.
`O=C(CCCCCCc1ccccc1)c1ncc(-c2ccccn2)o1` [OL-135]: the “inhibition of FAAH” value at FAAH is reported as “potent inhibitor of FAAH”. For the same molecule, the analgesic activity result in the data set on rats [1] is recorded as “analgesic activity”.
As for `NC(=O)c1cccc(-c2cccc(OC(=O)NC3CCCCC3)c2)c1` [URB-597], the “efficacy in anxiety model” value with rats [2] was “efficacy”. The analgesic efficacy result with rats [3] is recorded as “analgesic efficacy”.
